Test results published in PMC6483395 (Synlett : accounts and rapid communications in synthetic …, 2017).

Target: T1, NapH1 (Streptomyces sp. CNQ-525, UniProt A7KH27)
T1 sequence (A7KH27 42-527): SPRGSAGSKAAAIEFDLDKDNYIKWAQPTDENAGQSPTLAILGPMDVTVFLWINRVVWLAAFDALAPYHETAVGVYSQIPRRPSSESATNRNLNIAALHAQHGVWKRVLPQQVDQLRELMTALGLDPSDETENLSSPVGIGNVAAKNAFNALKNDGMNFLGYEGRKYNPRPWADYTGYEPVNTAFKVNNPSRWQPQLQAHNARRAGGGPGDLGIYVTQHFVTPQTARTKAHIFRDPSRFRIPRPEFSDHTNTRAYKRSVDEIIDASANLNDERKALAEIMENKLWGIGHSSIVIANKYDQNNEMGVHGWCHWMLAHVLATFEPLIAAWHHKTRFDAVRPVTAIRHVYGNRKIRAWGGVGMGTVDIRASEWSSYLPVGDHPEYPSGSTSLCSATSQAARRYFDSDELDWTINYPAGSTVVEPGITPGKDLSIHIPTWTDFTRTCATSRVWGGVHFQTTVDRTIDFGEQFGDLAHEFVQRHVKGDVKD
Assay: crystal structure
Format: binding
Conditions: homodimer; structures with and without vanadate

With `[O]=[V]([OH])([OH])[OH]` [vanadate] the crystal structure was “we solved the three-dimensional structures of the homodimeric NapH1 with and without vanadate”.
